For data set [1], the system named is Rattus norvegicus. The data set can be described thus: Toxicity in SwissRattus norvegicus albino (rat) up to 10 mg/kg, ip measured for 24 hr. Set-up: dose 10 mg/kg, route intraperitoneal. The note with it: in vivo. It counts as organism-based, Swiss albino.
Data set [2] deals with Rattus norvegicus. The data set can be described thus: Anticonvulsant activity in SwissRattus norvegicus albino (rat) assessed as protection against pentamethylene tetrazole-induced seizures at 5 mg/kg, ip administered for 15 min prior to pentamethylene tetrazole induction relative to placebo. It counts as functional, Swiss albino.
Data set [3] has as its system Rattus norvegicus. Put plainly: Anticonvulsant activity in SwissRattus norvegicus albino (rat) assessed as protection against pentamethylene tetrazole-induced seizures at 10 mg/kg, ip administered for 15 min prior to pentamethylene tetrazole induction relative to placebo. It counts as functional, Swiss albino.

SMILES strings stand for the structures. Active and inactive are the calls of the source. The calls are words filed in the database; no cut-off is given here.

As to `Cc1c(C(=O)NNC(N)=S)[nH]c(/C=C/c2ccc(Cl)cc2)c1C(=O)NNC(N)=S`, the Activity entry in the data set on Rattus norvegicus [1] is given as “Non-toxic”; in the data set on Rattus norvegicus [2] (route intraperitoneal), 19%; in the data set on Rattus norvegicus [3] (route intraperitoneal), 48%.

For the molecule `CCOC(=O)c1[nH]c(/C=C/c2ccc([N+](=O)[O-])cc2)c(C(=O)OCC)c1C`, the result with Rattus norvegicus [2] (Swiss albino) and with Rattus norvegicus [3] (Swiss albino) was inactive.

As to `COc1ccc(/C=C/c2[nH]c(C(=O)NNC(N)=S)c(C)c2C(=O)NNC(N)=S)cc1`, the values for the Activity entry in the data set on Rattus norvegicus [1], with Rattus norvegicus [2] (route intraperitoneal) and in the data set on Rattus norvegicus [3] (route intraperitoneal) were “Non-toxic”, 0% and 0%, respectively.

Consider `Cc1c(C(=O)NNC(N)=S)[nH]c(/C=C/c2ccc([N+](=O)[O-])cc2)c1C(=O)NNC(N)=S`, for which the Activity entry in the data set on Rattus norvegicus [1] is reported as “Non-toxic”; in the data set with Rattus norvegicus [2] (route intraperitoneal) it was 0%; in the data set on Rattus norvegicus [3] (route intraperitoneal), 0%.

For `CCOC(=O)c1[nH]c(/C=C/c2ccc(Cl)cc2)c(C(=O)OCC)c1C`, the outcome with Rattus norvegicus [2] (Swiss albino) and in the data set with Rattus norvegicus [3] (Swiss albino) was inactive.

As to `Cc1c(C(=O)NNC(N)=S)[nH]c(/C=C/c2ccc(N(C)C)cc2)c1C(=O)NNC(N)=S`, the values for the Activity result in the data set with Rattus norvegicus [1], in the data set on Rattus norvegicus [2] (route intraperitoneal) and with Rattus norvegicus [3] (route intraperitoneal) were “Non-toxic”, 21% and 46%, respectively.

On to `CCOC(=O)c1[nH]c(/C=C/c2ccc(O)cc2)c(C(=O)OCC)c1C`, for which the result with Rattus norvegicus [2] (Swiss albino) and in the data set on Rattus norvegicus [3] (Swiss albino) was inactive.

In the case of `O=C1NC(=O)C(c2ccccc2)(c2ccccc2)N1` [PHENYTOIN], the Activity result with Rattus norvegicus [1] is “Non-toxic”; in the data set on Rattus norvegicus [3] (route intraperitoneal) it was 98%.

As to `CCOC(=O)c1[nH]c(/C=C/c2ccc(OC)cc2)c(C(=O)OCC)c1C`, the outcome in the data set with Rattus norvegicus [2] (Swiss albino) and in the data set on Rattus norvegicus [3] (Swiss albino) was inactive.

For the molecule `Cc1c(C(=O)NNC(N)=S)[nH]c(/C=C/c2ccc(O)cc2)c1C(=O)NNC(N)=S`, the Activity entry is given as “Non-toxic” in the data set on Rattus norvegicus [1], 0% in the data set on Rattus norvegicus [2] (route intraperitoneal) and 0% in the data set with Rattus norvegicus [3] (route intraperitoneal).

In the case of `CCOC(=O)c1[nH]c(/C=C/c2ccc(N(C)C)cc2)c(C(=O)OCC)c1C`, the outcome in the data set on Rattus norvegicus [2] (Swiss albino) and in the data set with Rattus norvegicus [3] (Swiss albino) was inactive.

For the molecule `CCOC(=O)c1[nH]c(/C=C/c2ccccc2)c(C(=O)OCC)c1C`, the outcome with Rattus norvegicus [2] (Swiss albino) and with Rattus norvegicus [3] (Swiss albino) was inactive.

For `Cc1c(C(=O)NNC(N)=S)[nH]c(/C=C/c2ccccc2)c1C(=O)NNC(N)=S`, the Activity result in the data set on Rattus norvegicus [1] is on record as “Non-toxic”; in the data set on Rattus norvegicus [2] (route intraperitoneal), 33%; in the data set on Rattus norvegicus [3] (route intraperitoneal), 66%.

The record behind these values is ChEMBL document CHEMBL3045397, “Synthesis and anticonvulsant activity of some new series of pyrrole derivatives” (Med Chem Res, 2012).
